From ChEMBL document CHEMBL3352554, “Synthesis and structure-activity relationships of 4-fluorophenyl-imidazole p38α MAPK, CK1δ and JAK2 kinase inhibitors” (Bioorg Med Chem Lett, 2014)
Calls of active or inactive are those of the source. The rule behind the calls is not given here.

What follows are compounds tested against Casein kinase I isoform delta (Homo sapiens, UniProt P48730) (assay: Inhibition of CK1-delta (unknown origin) by radiometric assay).
Chain of Casein kinase I isoform delta (P48730 whole entry, canonical isoform): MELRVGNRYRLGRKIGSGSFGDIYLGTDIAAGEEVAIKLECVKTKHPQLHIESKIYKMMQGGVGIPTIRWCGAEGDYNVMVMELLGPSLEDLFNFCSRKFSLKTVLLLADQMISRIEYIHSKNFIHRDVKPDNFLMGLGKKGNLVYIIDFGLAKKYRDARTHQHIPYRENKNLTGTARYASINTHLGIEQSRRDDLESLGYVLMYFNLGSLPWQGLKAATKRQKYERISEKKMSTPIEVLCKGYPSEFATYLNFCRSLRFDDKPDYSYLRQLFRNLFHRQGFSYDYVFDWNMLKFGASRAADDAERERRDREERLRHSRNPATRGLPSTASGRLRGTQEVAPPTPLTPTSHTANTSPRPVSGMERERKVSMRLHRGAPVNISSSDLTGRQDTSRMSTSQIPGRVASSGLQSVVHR

Row | Structure (SMILES) | IC50
1 | Cn1c(-c2cn([C@H]3CCNC[C@@H]3F)nn2)nc(-c2ccc(F)cc2)c1-c1ccncc1 | 0.437 µM
2 | Oc1ccc(-c2nc(-c3ccncc3)c(-c3ccc(F)cc3)[nH]2)cc1 [SB-202190] | 0.188 µM
3 | O=c1cc(-c2[nH]c(-c3ccc(-c4cn(CCP(=O)(O)O)nn4)cc3)nc2-c2ccc(F)cc2)cc[nH]1 | 10.8 µM
4 | O=c1cc(-c2[nH]c(C3CCNCC3)nc2-c2ccc(F)cc2)cc[nH]1 | 12 µM
5 | Cn1c(-c2cn([C@@H]3[C@@H](O)[C@H](O)[C@@H](CO)O[C@H]3O)nn2)nc(-c2ccc(F)cc2)c1-c1ccncc1 | 0.439 µM
6 | C[C@H](Nc1nccc(-c2c(-c3ccc(F)cc3)nc3nc(N)ccn23)n1)c1ccccc1 | > 100 µM
7 | Cn1c(-c2cn(-c3ccc(C(=O)O)cc3)nn2)nc(-c2ccc(F)cc2)c1-c1ccncc1 | 1.6 µM
8 | Cn1c(-c2cn(-c3cccc(C(=O)O)c3)nn2)nc(-c2ccc(F)cc2)c1-c1ccncc1 | 0.089 µM
9 | O=c1cc(-c2[nH]c(-c3ccc(O)cc3)nc2-c2ccc(F)cc2)cc[nH]1 | 19.7 µM
10 | CCOP(=O)(CCn1cc(-c2ccn3c(-c4ccnc(SC)n4)c(-c4ccc(F)cc4)nc3n2)nn1)OCC | 21.4 µM
11 | Cn1c(-c2cn(CCO)nn2)nc(-c2ccc(F)cc2)c1-c1ccncc1 | 0.24 µM
12 | CCOP(=O)(CCn1cc(-c2ccc(-c3nc(-c4ccc(F)cc4)c(-c4cc[nH]c(=O)c4)[nH]3)cc2)nn1)OCC | 44.3 µM
13 | C#Cc1ccn2c(-c3ccnc(SC)n3)c(-c3ccc(F)cc3)nc2n1 | > 100 µM

What follows are compounds tested against T1, Mitogen-activated protein kinase 14 (Homo sapiens, UniProt Q16539) (assay: Inhibition of p38alpha MAPK (unknown origin) by radiometric assay).
T1 sequence (Q16539 whole entry): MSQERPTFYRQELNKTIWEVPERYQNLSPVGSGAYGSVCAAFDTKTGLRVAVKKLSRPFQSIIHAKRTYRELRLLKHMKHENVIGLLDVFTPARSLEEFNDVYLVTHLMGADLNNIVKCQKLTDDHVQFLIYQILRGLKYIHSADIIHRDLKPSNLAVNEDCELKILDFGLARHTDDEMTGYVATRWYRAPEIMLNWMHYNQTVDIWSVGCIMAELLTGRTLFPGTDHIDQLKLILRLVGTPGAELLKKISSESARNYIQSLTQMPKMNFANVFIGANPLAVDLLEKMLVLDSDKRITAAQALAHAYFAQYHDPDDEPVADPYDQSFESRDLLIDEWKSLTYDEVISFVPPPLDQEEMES

Row | Structure (SMILES) | IC50
14 | O=c1cc(-c2[nH]c(-c3ccc(-c4cn(CCP(=O)(O)O)nn4)cc3)nc2-c2ccc(F)cc2)cc[nH]1 | > 100 µM
15 | O=c1cc(-c2[nH]c(C3CCNCC3)nc2-c2ccc(F)cc2)cc[nH]1 | 1.14 µM
16 | Cn1c(-c2cn([C@@H]3[C@@H](O)[C@H](O)[C@@H](CO)O[C@H]3O)nn2)nc(-c2ccc(F)cc2)c1-c1ccncc1 | 1.02 µM
17 | C[C@H](Nc1nccc(-c2c(-c3ccc(F)cc3)nc3nc(N)ccn23)n1)c1ccccc1 | 0.0085 µM
18 | Cn1c(-c2cn(-c3ccc(C(=O)O)cc3)nn2)nc(-c2ccc(F)cc2)c1-c1ccncc1 | 0.166 µM
19 | O=c1cc(-c2[nH]c(-c3ccc(O)cc3)nc2-c2ccc(F)cc2)cc[nH]1 | 4.96 µM
20 | CCOP(=O)(CCn1cc(-c2ccn3c(-c4ccnc(SC)n4)c(-c4ccc(F)cc4)nc3n2)nn1)OCC | 12 µM
21 | Cn1c(-c2cn(CCO)nn2)nc(-c2ccc(F)cc2)c1-c1ccncc1 | 0.783 µM
22 | CCOP(=O)(CCn1cc(-c2ccc(-c3nc(-c4ccc(F)cc4)c(-c4cc[nH]c(=O)c4)[nH]3)cc2)nn1)OCC | > 100 µM
23 | C#Cc1ccn2c(-c3ccnc(SC)n3)c(-c3ccc(F)cc3)nc2n1 | 2.51 µM

What follows are compounds tested against T2, Tyrosine-protein kinase JAK3 (Homo sapiens, UniProt P52333) (assay: Inhibition of JAK3 (unknown origin) by radiometric assay).
T2 sequence (P52333 whole entry): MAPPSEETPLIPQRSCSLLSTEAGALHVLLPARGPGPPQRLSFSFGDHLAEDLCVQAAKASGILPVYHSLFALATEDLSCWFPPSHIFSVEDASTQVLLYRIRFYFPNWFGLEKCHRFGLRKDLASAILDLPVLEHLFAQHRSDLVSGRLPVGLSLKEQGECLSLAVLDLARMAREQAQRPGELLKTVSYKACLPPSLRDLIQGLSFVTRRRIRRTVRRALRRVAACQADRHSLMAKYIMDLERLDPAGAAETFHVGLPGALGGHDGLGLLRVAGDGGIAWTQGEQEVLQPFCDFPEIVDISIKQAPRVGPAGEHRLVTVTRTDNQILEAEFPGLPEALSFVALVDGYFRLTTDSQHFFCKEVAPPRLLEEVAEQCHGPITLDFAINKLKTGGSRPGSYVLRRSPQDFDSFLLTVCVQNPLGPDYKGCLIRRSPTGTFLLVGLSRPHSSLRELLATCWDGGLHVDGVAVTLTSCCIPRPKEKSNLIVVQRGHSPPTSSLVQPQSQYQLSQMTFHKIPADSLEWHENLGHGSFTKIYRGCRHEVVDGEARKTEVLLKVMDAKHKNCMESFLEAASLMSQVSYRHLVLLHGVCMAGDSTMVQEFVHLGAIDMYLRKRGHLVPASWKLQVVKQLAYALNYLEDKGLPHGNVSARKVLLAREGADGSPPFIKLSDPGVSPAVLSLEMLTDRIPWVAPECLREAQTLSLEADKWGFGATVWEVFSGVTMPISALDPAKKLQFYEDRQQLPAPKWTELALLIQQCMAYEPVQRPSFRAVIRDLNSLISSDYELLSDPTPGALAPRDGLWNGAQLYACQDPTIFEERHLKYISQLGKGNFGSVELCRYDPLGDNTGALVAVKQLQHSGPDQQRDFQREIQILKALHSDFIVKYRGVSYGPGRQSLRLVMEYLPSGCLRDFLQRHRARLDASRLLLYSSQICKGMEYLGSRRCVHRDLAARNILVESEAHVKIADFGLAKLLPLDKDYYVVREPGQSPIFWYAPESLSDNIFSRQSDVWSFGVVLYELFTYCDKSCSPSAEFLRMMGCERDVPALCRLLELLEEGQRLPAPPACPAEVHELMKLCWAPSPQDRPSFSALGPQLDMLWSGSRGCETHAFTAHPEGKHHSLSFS

Row | Structure (SMILES) | IC50
24 | Cn1c(-c2cn([C@H]3CCNC[C@@H]3F)nn2)nc(-c2ccc(F)cc2)c1-c1ccncc1 | > 100 µM
25 | Oc1ccc(-c2nc(-c3ccncc3)c(-c3ccc(F)cc3)[nH]2)cc1 [SB-202190] | > 100 µM
26 | O=c1cc(-c2[nH]c(-c3ccc(-c4cn(CCP(=O)(O)O)nn4)cc3)nc2-c2ccc(F)cc2)cc[nH]1 | > 100 µM
27 | O=c1cc(-c2[nH]c(C3CCNCC3)nc2-c2ccc(F)cc2)cc[nH]1 | 11.8 µM
28 | Cn1c(-c2cn([C@@H]3[C@@H](O)[C@H](O)[C@@H](CO)O[C@H]3O)nn2)nc(-c2ccc(F)cc2)c1-c1ccncc1 | > 100 µM
29 | C[C@H](Nc1nccc(-c2c(-c3ccc(F)cc3)nc3nc(N)ccn23)n1)c1ccccc1 | > 100 µM
30 | Cn1c(-c2cn(-c3ccc(C(=O)O)cc3)nn2)nc(-c2ccc(F)cc2)c1-c1ccncc1 | > 100 µM
31 | Cn1c(-c2cn(-c3cccc(C(=O)O)c3)nn2)nc(-c2ccc(F)cc2)c1-c1ccncc1 | > 100 µM
32 | O=c1cc(-c2[nH]c(-c3ccc(O)cc3)nc2-c2ccc(F)cc2)cc[nH]1 | 14.4 µM
33 | CCOP(=O)(CCn1cc(-c2ccn3c(-c4ccnc(SC)n4)c(-c4ccc(F)cc4)nc3n2)nn1)OCC | > 100 µM
34 | Cn1c(-c2cn(CCO)nn2)nc(-c2ccc(F)cc2)c1-c1ccncc1 | > 100 µM
35 | CCOP(=O)(CCn1cc(-c2ccc(-c3nc(-c4ccc(F)cc4)c(-c4cc[nH]c(=O)c4)[nH]3)cc2)nn1)OCC | 37.4 µM
36 | C#Cc1ccn2c(-c3ccnc(SC)n3)c(-c3ccc(F)cc3)nc2n1 | > 100 µM

These compounds were tested against T1, Mitogen-activated protein kinase 14 (assay: Inhibition of p38alpha MAPK in TNF-alpha-induced HUVEC assessed as downregulation of IL-6 mRNA expression at 10 uM incubated for 4 hrs by RT-PCR analysis).
Assay type: cell-based

Row | Structure (SMILES) | inhibition
37 | O=c1cc(-c2[nH]c(C3CCNCC3)nc2-c2ccc(F)cc2)cc[nH]1 | inactive
38 | O=c1cc(-c2[nH]c(-c3ccc(O)cc3)nc2-c2ccc(F)cc2)cc[nH]1 | inactive

The compounds below were run against T1, Mitogen-activated protein kinase 14 (assay: Inhibition of p38alpha MAPK in TNF-alpha-induced HUVEC assessed as downregulation of COX-2 mRNA expression at 10 uM incubated for 4 hrs by RT-PCR analysis).
Assay type: cell-based

Row | Structure (SMILES) | inhibition
39 | O=c1cc(-c2[nH]c(C3CCNCC3)nc2-c2ccc(F)cc2)cc[nH]1 | inactive
40 | O=c1cc(-c2[nH]c(-c3ccc(O)cc3)nc2-c2ccc(F)cc2)cc[nH]1 | inactive

Each compound was assayed against Tyrosine-protein kinase JAK1 (Homo sapiens, UniProt P23458) (assay: Inhibition of JAK1 (unknown origin) by radiometric assay).
Chain of Tyrosine-protein kinase JAK1 (P23458 whole entry): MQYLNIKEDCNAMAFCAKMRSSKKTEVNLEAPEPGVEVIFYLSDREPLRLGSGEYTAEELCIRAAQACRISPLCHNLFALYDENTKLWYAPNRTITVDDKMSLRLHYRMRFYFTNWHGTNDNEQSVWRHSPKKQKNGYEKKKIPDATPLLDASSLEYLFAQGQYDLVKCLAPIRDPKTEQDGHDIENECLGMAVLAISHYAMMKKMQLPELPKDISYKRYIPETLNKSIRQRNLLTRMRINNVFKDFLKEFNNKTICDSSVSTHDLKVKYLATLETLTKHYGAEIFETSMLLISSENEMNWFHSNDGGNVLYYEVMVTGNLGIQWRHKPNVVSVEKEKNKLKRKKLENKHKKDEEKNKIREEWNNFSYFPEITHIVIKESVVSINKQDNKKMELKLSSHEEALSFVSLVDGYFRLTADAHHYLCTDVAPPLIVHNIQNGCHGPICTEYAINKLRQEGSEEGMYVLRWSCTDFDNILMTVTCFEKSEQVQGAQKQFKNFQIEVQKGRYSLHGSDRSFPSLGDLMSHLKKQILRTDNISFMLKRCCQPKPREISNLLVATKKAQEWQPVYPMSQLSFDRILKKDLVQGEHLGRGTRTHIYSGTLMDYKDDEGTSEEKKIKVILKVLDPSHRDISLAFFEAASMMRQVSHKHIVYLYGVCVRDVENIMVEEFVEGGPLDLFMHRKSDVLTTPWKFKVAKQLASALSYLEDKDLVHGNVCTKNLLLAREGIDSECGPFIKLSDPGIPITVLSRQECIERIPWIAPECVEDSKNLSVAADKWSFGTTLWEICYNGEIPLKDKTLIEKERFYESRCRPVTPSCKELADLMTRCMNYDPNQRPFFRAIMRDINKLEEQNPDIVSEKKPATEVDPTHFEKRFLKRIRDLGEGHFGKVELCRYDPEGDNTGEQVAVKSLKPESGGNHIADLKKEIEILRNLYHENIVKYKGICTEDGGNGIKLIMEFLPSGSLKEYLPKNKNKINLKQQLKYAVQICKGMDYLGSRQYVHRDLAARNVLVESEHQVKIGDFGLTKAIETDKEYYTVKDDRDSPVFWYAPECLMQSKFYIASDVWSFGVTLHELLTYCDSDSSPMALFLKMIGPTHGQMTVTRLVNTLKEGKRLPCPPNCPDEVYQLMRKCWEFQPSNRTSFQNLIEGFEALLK

Row | Structure (SMILES) | IC50
41 | Cn1c(-c2cn([C@H]3CCNC[C@@H]3F)nn2)nc(-c2ccc(F)cc2)c1-c1ccncc1 | > 100 µM
42 | Oc1ccc(-c2nc(-c3ccncc3)c(-c3ccc(F)cc3)[nH]2)cc1 [SB-202190] | > 100 µM
43 | O=c1cc(-c2[nH]c(-c3ccc(-c4cn(CCP(=O)(O)O)nn4)cc3)nc2-c2ccc(F)cc2)cc[nH]1 | > 100 µM
44 | O=c1cc(-c2[nH]c(C3CCNCC3)nc2-c2ccc(F)cc2)cc[nH]1 | 16.9 µM
45 | Cn1c(-c2cn([C@@H]3[C@@H](O)[C@H](O)[C@@H](CO)O[C@H]3O)nn2)nc(-c2ccc(F)cc2)c1-c1ccncc1 | > 100 µM
46 | C[C@H](Nc1nccc(-c2c(-c3ccc(F)cc3)nc3nc(N)ccn23)n1)c1ccccc1 | > 100 µM
47 | Cn1c(-c2cn(-c3ccc(C(=O)O)cc3)nn2)nc(-c2ccc(F)cc2)c1-c1ccncc1 | > 100 µM
48 | Cn1c(-c2cn(-c3cccc(C(=O)O)c3)nn2)nc(-c2ccc(F)cc2)c1-c1ccncc1 | > 100 µM
49 | O=c1cc(-c2[nH]c(-c3ccc(O)cc3)nc2-c2ccc(F)cc2)cc[nH]1 | 54.6 µM
50 | CCOP(=O)(CCn1cc(-c2ccn3c(-c4ccnc(SC)n4)c(-c4ccc(F)cc4)nc3n2)nn1)OCC | > 100 µM
51 | Cn1c(-c2cn(CCO)nn2)nc(-c2ccc(F)cc2)c1-c1ccncc1 | > 100 µM
52 | CCOP(=O)(CCn1cc(-c2ccc(-c3nc(-c4ccc(F)cc4)c(-c4cc[nH]c(=O)c4)[nH]3)cc2)nn1)OCC | 23.9 µM
53 | C#Cc1ccn2c(-c3ccnc(SC)n3)c(-c3ccc(F)cc3)nc2n1 | > 100 µM

The compounds below were run against T1, Mitogen-activated protein kinase 14 (assay: Inhibition of p38alpha MAPK in TNF-alpha-induced HUVEC assessed as downregulation of VCAM-1 mRNA expression at 10 uM incubated for 4 hrs by RT-PCR analysis).
Assay type: cell-based

Row | Structure (SMILES) | inhibition
54 | O=c1cc(-c2[nH]c(C3CCNCC3)nc2-c2ccc(F)cc2)cc[nH]1 | inactive
55 | O=c1cc(-c2[nH]c(-c3ccc(O)cc3)nc2-c2ccc(F)cc2)cc[nH]1 | inactive

The compounds below were run against Tyrosine-protein kinase JAK2 (Homo sapiens, UniProt O60674) (assay: Inhibition of JAK2 (unknown origin) by radiometric assay).
Chain of Tyrosine-protein kinase JAK2 (O60674 whole entry): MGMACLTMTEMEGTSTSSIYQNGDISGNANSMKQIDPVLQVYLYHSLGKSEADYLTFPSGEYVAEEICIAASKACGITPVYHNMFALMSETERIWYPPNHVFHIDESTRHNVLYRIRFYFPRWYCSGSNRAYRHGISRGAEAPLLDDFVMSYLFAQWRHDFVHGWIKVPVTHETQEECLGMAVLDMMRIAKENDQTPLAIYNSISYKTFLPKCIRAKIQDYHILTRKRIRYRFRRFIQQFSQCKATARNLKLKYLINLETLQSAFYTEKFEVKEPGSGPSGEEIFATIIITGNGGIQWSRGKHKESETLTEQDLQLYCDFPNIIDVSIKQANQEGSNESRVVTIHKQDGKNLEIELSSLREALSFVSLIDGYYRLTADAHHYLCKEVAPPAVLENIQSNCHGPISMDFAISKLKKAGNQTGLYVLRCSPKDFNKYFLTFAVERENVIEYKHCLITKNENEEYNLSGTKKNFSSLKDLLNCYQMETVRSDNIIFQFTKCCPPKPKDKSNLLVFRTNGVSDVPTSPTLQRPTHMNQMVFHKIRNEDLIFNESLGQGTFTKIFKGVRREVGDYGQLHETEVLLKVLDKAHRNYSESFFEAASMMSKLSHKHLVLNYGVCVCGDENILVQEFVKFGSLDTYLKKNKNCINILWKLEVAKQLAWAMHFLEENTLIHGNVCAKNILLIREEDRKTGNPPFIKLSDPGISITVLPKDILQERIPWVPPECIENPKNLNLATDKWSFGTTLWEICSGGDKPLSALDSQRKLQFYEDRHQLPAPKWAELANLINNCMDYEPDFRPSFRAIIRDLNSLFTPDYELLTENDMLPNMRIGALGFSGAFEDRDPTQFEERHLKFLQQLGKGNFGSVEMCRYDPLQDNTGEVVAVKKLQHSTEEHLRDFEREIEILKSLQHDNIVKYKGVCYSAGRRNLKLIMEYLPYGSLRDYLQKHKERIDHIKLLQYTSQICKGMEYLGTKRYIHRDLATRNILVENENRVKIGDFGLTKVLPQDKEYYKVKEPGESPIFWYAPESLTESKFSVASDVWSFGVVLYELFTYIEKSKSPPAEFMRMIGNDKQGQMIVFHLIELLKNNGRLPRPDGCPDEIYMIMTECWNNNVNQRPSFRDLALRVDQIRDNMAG

Row | Structure (SMILES) | IC50
56 | Cn1c(-c2cn([C@H]3CCNC[C@@H]3F)nn2)nc(-c2ccc(F)cc2)c1-c1ccncc1 | > 100 µM
57 | Oc1ccc(-c2nc(-c3ccncc3)c(-c3ccc(F)cc3)[nH]2)cc1 [SB-202190] | > 100 µM
58 | O=c1cc(-c2[nH]c(C3CCNCC3)nc2-c2ccc(F)cc2)cc[nH]1 | 6.62 µM
59 | Cn1c(-c2cn([C@@H]3[C@@H](O)[C@H](O)[C@@H](CO)O[C@H]3O)nn2)nc(-c2ccc(F)cc2)c1-c1ccncc1 | > 100 µM
60 | C[C@H](Nc1nccc(-c2c(-c3ccc(F)cc3)nc3nc(N)ccn23)n1)c1ccccc1 | > 100 µM
61 | Cn1c(-c2cn(-c3ccc(C(=O)O)cc3)nn2)nc(-c2ccc(F)cc2)c1-c1ccncc1 | > 100 µM
62 | Cn1c(-c2cn(-c3cccc(C(=O)O)c3)nn2)nc(-c2ccc(F)cc2)c1-c1ccncc1 | > 100 µM
63 | O=c1cc(-c2[nH]c(-c3ccc(O)cc3)nc2-c2ccc(F)cc2)cc[nH]1 | 0.911 µM
64 | CCOP(=O)(CCn1cc(-c2ccn3c(-c4ccnc(SC)n4)c(-c4ccc(F)cc4)nc3n2)nn1)OCC | > 100 µM
65 | Cn1c(-c2cn(CCO)nn2)nc(-c2ccc(F)cc2)c1-c1ccncc1 | > 100 µM
66 | CCOP(=O)(CCn1cc(-c2ccc(-c3nc(-c4ccc(F)cc4)c(-c4cc[nH]c(=O)c4)[nH]3)cc2)nn1)OCC | 4.2 µM
67 | C#Cc1ccn2c(-c3ccnc(SC)n3)c(-c3ccc(F)cc3)nc2n1 | > 100 µM
